pIC50: −log10 of the molar value. Where two headings read alike, the source gives them in different places.
Legend:
[1] = cells; conditions: Homo sapiens, MCF-10A, read-out: MCF10A I50
[2] = target: H1047R PIK3CA enzyme (Homo sapiens, UniProt P42336, H1047R); assay: ADP-Glo Biochemical PIK3CA Kinase Assay
[3] = ADP-Glo biochemical PIK3CA kinase assay

H1047R PIK3CA enzyme, sequence (P42336 whole entry H1047R): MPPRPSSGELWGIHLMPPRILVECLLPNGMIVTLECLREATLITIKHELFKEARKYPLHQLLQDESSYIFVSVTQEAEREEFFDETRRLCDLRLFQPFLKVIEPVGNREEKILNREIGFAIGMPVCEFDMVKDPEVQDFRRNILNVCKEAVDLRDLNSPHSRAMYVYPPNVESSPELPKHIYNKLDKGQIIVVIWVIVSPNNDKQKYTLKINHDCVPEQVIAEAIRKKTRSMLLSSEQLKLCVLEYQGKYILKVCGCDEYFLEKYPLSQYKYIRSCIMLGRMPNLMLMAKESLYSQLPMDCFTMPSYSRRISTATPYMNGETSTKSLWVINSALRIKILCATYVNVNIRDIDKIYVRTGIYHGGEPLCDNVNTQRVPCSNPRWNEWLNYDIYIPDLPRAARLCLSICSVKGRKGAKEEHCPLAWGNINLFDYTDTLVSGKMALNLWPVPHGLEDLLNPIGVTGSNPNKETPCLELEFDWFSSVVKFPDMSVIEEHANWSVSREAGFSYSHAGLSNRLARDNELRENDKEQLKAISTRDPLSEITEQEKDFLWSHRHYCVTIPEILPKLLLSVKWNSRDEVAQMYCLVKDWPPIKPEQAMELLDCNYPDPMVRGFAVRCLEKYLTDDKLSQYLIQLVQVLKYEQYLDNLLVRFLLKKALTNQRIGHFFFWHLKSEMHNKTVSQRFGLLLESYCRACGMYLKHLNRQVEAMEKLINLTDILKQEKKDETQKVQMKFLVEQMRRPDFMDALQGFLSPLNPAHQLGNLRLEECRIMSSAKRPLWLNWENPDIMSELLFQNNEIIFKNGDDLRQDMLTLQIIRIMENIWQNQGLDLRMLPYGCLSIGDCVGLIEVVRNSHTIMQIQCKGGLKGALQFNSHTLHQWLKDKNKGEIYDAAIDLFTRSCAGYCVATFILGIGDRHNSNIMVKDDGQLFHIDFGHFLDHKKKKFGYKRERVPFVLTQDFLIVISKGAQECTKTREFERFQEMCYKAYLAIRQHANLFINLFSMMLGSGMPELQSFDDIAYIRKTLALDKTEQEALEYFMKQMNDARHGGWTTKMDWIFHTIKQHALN
H1047R PIK3CA enzyme, sequence (P27986 whole entry partner): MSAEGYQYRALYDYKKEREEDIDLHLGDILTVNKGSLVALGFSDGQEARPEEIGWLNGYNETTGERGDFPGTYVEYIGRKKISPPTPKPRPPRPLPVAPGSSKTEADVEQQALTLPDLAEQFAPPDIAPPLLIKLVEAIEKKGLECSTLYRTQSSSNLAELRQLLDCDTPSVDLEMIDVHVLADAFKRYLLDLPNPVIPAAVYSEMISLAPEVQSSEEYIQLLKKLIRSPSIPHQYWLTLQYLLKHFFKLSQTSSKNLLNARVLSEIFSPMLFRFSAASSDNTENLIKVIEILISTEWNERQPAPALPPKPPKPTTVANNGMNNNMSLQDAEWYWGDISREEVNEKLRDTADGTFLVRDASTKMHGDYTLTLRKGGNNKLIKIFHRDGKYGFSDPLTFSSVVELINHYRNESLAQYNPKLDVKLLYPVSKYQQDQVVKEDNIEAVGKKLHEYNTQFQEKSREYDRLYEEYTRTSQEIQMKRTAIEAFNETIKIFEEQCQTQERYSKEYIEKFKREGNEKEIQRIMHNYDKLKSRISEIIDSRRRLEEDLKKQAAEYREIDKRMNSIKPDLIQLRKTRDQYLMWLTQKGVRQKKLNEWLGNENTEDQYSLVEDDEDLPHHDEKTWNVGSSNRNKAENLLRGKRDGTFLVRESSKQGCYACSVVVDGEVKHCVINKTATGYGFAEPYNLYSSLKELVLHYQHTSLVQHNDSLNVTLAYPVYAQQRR

Cc1ccccc1Nc1ncc(C(=O)Nc2ccc3cn(C)nc3c2)cc1NC(=O)c1csc2ccccc12 [I-609]
pIC50 [1]: 5.30 to 6.00 | pIC50 [2, 3]: ≥ 7.00

CNC(=O)c1cnc(Nc2ccc(F)cc2)c(NC(=O)c2cc(F)cc(C(F)(F)F)c2)c1 [I-285]
pIC50 [1]: 4.44 to 5.00 | pIC50 [2]: 6.00 to 6.30

C[C@@H](NC(=O)c1cnc(N2CCOc3ccccc32)c(NC(=O)c2csc3ccccc23)c1)c1cccnc1 (stereo in doubt) [I-257]
pIC50 [1]: 5.00 to 5.30 | pIC50 [2]: ≥ 7.00

Cc1ccccc1Nc1ncc(C(=O)NCC2CC(F)(F)C2)cc1NC(=O)c1cc(F)cc(C(F)(F)F)c1 [I-211]
pIC50 [1]: 5.30 to 6.00 | pIC50 [2]: 6.30 to 7.00

COc1ccnc(CNC(=O)c2cnc(Nc3ccccc3C)c(NC(=O)c3csc4ccccc34)c2)c1 [I-538]
pIC50 [1]: 4.44 to 5.00 | pIC50 [2, 3]: 6.30 to 7.00

Cc1ccccc1Nc1ncc(C(=O)NCC2(S(C)(=O)=O)CCC2)cc1NC(=O)c1csc2ccccc12 [I-608]
pIC50 [1]: 4.44 to 5.00 | pIC50 [2, 3]: 6.00 to 6.30

Cc1ccccc1Nc1ncc(C(=O)NCc2cocn2)cc1NC(=O)c1csc2ccccc12 [I-602]
pIC50 [1]: 4.44 to 5.00 | pIC50 [2, 3]: 6.30 to 7.00

CNC(=O)c1cnc(Nc2ccc(C#N)cc2)c(NC(=O)c2cc(F)cc(C(F)(F)F)c2)c1 [I-295]
pIC50 [1]: 4.00 to 4.44 | pIC50 [2]: 5.00 to 6.00

Cc1ccccc1Nc1ncc(C(=O)NCC2CS(=O)(=O)C2)cc1NC(=O)c1csc2ccccc12 [I-137]
pIC50 [1]: 5.00 to 5.30 | pIC50 [2]: 6.30 to 7.00

CNC(=O)c1cnc(Nc2ccccc2Cl)c(NC(=O)c2csc3ccccc23)c1 [I-362]
pIC50 [1]: 4.44 to 5.00 | pIC50 [2]: ≥ 7.00

CNC(=O)c1cnc(Nn2nccc2C(F)(F)F)c(NC(=O)c2csc3ccccc23)c1 [I-772]
pIC50 [1]: 5.30 to 6.00 | pIC50 [2, 3]: ≥ 7.00

CCOc1ccccc1Nc1ncc(C(=O)NC)cc1NC(=O)c1cc(F)cc(C(F)(F)F)c1 [I-288]
pIC50 [1]: 4.00 to 4.44 | pIC50 [2]: 4.00 to 5.00

Cc1ccccc1Nc1ncc(C(N)=O)cc1NC(=O)c1cc(F)cc(C(F)(F)F)c1 [I-28]
pIC50 [1]: 5.00 to 5.30 | pIC50 [2]: 6.00 to 6.30

CNC(=O)c1cnc(Nc2cccc(Cl)c2C)c(NC(=O)c2cc(F)cc(C(F)(F)F)c2)c1 [I-290]
pIC50 [1]: 4.00 to 4.44 | pIC50 [2]: 5.00 to 6.00

CNC(=O)c1cnc(Nc2cc(CO)ccc2Cl)c(NC(=O)c2cc(F)cc(C(F)(F)F)c2)c1 [I-809]
pIC50 [1]: 5.30 to 6.00 | pIC50 [2]: 6.30 to 7.00

CNC(=O)c1cnc(Nc2ccccc2C)c(NC(=O)c2csc3c2CCOC3)c1 [I-402]
pIC50 [1]: 4.44 to 5.00 | pIC50 [2, 3]: 5.00 to 6.00

Cc1ccccc1Nc1ncc(C(=O)NCc2cnccc2C(F)(F)F)cc1NC(=O)c1csc2ccccc12 [I-525]
pIC50 [1]: 4.44 to 5.00 | pIC50 [2, 3]: ≥ 7.00

O=C(Nc1cc(C(=O)NC2CS(=O)(=O)C2)cnc1N1CCCc2ccccc21)c1cc(F)cc(C(F)(F)F)c1 [I-208]
pIC50 [1]: 5.00 to 5.30 | pIC50 [2]: 6.00 to 6.30

Cc1ccccc1Nc1cccnc1NC(=O)c1csc2ccccc12 [I-635]
pIC50 [1]: 4.00 to 4.44 | pIC50 [2, 3]: 6.30 to 7.00

CNC(=O)c1cnc(Nc2ccccc2C)c(NC(=O)c2cc(F)cc(C#N)c2)c1 [I-313]
pIC50 [1]: 4.44 to 5.00 | pIC50 [2]: 5.00 to 6.00
